From patent US11332477B2, “Nitrogen containing heterocycle substituted benzoxazine oxazolidinone compound and preparation method and use thereof” (INSTITUTE OF MATERIA MEDICA, CHINESE ACADEMY OF MEDICAL …, priority 2017, dated 2022)
≈ marks a conversion by molar mass, not a printed value. Where two headings read alike, the source gives them in different places.

Tests used:
Vero cells = experiment: Cytotoxicity test (MTT); type: cell-based; conditions: Chlorocebus sabaeus
[1] = tested on: Mycobacterium tuberculosis H37Rv; experiment: Anti-tuberculosis activity test in vitro (Microplate Alamar Blue Assay, MABA); type: cell-based
[2] = tested on: mitochondrial protein synthesis; experiment: Activity of inhibiting mitochondrial protein synthesis; type: biochemical
Procedure: The experimental steps were carried out according to the literature (Antimicrobial Agents and Chemotherapy, 2006, 50 (6), 2042-2049).

[3] = Vero cells, MTT, 48 hours of incubation, highest concentration 64 μg/mL, read-out: IC50
[4] = M. tuberculosis H37Rv, MABA, 7H9 medium, method says MIC90 was calculated, read-out: MIC
[5] = mitochondrial protein synthesis inhibition, Table 3

**Q.** Which melting point does the source give for `O=C(NC[C@@H]1OC(=O)N2c3cc(F)c(N4C5CCC4CSC5)cc3OC[C@@H]12)c1cnccn1` here?
**A.** > 250 °C

**Q.** Which results are given for `CNC[C@@H]1OC(=O)N2c3cc(F)c(N4CCSCC4)cc3OC[C@@H]12` [Compound 2, (3S,3aS)-8-Fluoro-3-((methylamino)methyl)-7-thiomorpholino-3a,4-dihydro-1H,3H-benzo[b]oxazolo[3,4-d][1,4]oxazin-1-one]?
**A.** IC50 (Vero cells; [3]): 46.5 µg/mL (≈ 132 µM); melting point: 155 to 156 °C

**Q.** What does the source list for `CS(=O)(=O)NC[C@@H]1OC(=O)N2c3cc(F)c(N4CCSCC4)cc3OC[C@@H]12` [Compound 3, N-(((3S,3aS)-8-Fluoro-1-oxo-7-thiomorpholino-3a,4-dihydro-1H,3H-benzo[b]oxazolo[3,4-d][1,4]oxazin-3-yl)methyl)methanesulfonamide]?
**A.** IC50 (Vero cells; [3]): > 64 µg/mL; melting point: 234 to 235 °C

**Q.** With `CC(=O)NC[C@@H]1OC(=O)N2c3cc(F)c(N4CCSCC4)cc3OC[C@@H]12` [Compound 4, N-(((3S,3aS)-8-Fluoro-1-oxo-7-thiomorpholino-3a,4-dihydro-1H,3H-benzo[b]oxazolo[3,4-d][1,4]oxazin-3-yl)methyl)acetamide] as the compound, how does the MIC [1, 4] read?
**A.** 0.044 µg/mL (≈ 0.115 µM)

**Q.** And the IC50 (Vero cells; [3])?
**A.** > 64 µg/mL

**Q.** And the IC50 [2, 5]?
**A.** 99.39 µg/mL

**Q.** With `NC[C@@H]1OC(=O)N2c3cc(F)c(N4[C@@H]5CC[C@H]4CSC5)cc3OC[C@@H]12` [Compound 13, (3S,3aS)-3-(Aminomethyl)-7-((1R,5S)-3-thia-8-azabicyclo[3.2.1]octan-8-yl)-8-fluoro-3a,4-dihydro-1H,3H-benzo[b]oxazolo[3,4-d][1,4]oxazin-1-one] as the compound, how does the MIC ([1]; H37RV) read?
**A.** 0.609 µg/mL (≈ 1.67 µM)

**Q.** What about the melting point of the same compound?
**A.** 168 to 169 °C

**Q.** What does the source list for `CC(=O)NC[C@@H]1OC(=O)N2c3cc(F)c(N4[C@@H]5CC[C@H]4CSC5)cc3OC[C@@H]12` [Compound 14, N-(((3S,3aS)-7-((1R,5S)-3-thia-8-azabicyclo[3.2.1]octan-8-yl)-8-fluoro-1-oxo-3a,4-dihydro-1H,3H-benzo[b]oxazolo[3,4-d][1,4]oxazin-3-yl)methyl)acetamide]?
**A.** MIC ([1]; H37RV): 0.918 µg/mL (≈ 2.25 µM); IC50 (Vero cells; Vero, 48 h): 58.5 µg/mL (≈ 144 µM); melting point: 235 to 236 °C

**Q.** For `CC(C)C(=O)NC[C@@H]1OC(=O)N2c3cc(F)c(N4C5CCC4CSC5)cc3OC[C@@H]12` [Compound 15], which IC50 (Vero cells; Vero, 48 h) is on record?
**A.** > 64 µg/mL

**Q.** And the melting point?
**A.** 164 to 165 °C

**Q.** Which results are given for `O=C(NC[C@@H]1OC(=O)N2c3cc(F)c(N4[C@@H]5CC[C@H]4CSC5)cc3OC[C@@H]12)C1CC1` [Compound 16, N-(((3S,3aS)-7-((1R,5S)-3-thia-8-azabicyclo[3.2.1]octan-8-yl)-8-fluoro-1-oxo-3a,4-dihydro-1H,3H-benzo[b]oxazolo[3,4-d][1,4]oxazin-3-yl)methyl)cyclopropanecarboxamide]?
**A.** MIC ([1]; H37RV): 0.976 µg/mL (≈ 2.25 µM); IC50 (Vero cells; Vero, 48 h): > 64 µg/mL; melting point: 169 to 171 °C

**Q.** Which MIC ([1]; H37RV) does the source give for `O=C(NC[C@@H]1OC(=O)N2c3cc(F)c(N4[C@@H]5CC[C@H]4CSC5)cc3OC[C@@H]12)C1CCC1` [Compound 17, N-(((3S,3aS)-7-((1R,5S)-3-thia-8-azabicyclo[3.2.1]octan-8-yl)-8-fluoro-1-oxo-3a,4-dihydro-1H,3H-benzo[b]oxazolo[3,4-d][1,4]oxazin-3-yl)methyl)cyclobutanecarboxamide] here?
**A.** 0.974 µg/mL (≈ 2.18 µM)

**Q.** What about the IC50 (Vero cells; Vero, 48 h) of the same compound?
**A.** 34.7 µg/mL (≈ 77.5 µM)

**Q.** And the melting point?
**A.** 195 to 196 °C

**Q.** Which IC50 (Vero cells; Vero, 48 h) does the source give for `COC(=O)NC[C@@H]1OC(=O)N2c3cc(F)c(N4[C@@H]5CC[C@H]4CSC5)cc3OC[C@@H]12` [Compound 18, Methyl (((3S,3aS)-7-((1R,5S)-3-thia-8-azabicyclo[3.2.1]octan-8-yl)-8-fluoro-1-oxo-3a,4-dihydro-1H,3H-benzo[b]oxazolo[3,4-d][1,4]oxazin-3-yl)methyl)carbamate] here?
**A.** > 64 µg/mL

**Q.** What about the melting point of the same compound?
**A.** 149 to 151 °C

**Q.** For `O=C1O[C@@H](CNc2ccon2)[C@@H]2COc3cc(N4[C@@H]5CC[C@H]4CSC5)c(F)cc3N12` [Compound 19, (3S,3aS)-7-((1R,5S)-3-thia-8-azabicyclo[3.2.1]octan-8-yl)-8-fluoro-3-((isoxazol-3-ylamino)methyl)-3a,4-dihydro-1H,3H-benzo[b]oxazolo[3,4-d][1,4]oxazin-1-one], which IC50 (Vero cells; Vero, 48 h) is on record?
**A.** > 64 µg/mL

**Q.** And the melting point?
**A.** 180 to 182 °C

**Q.** What does the source list for `O=C(NC[C@@H]1OC(=O)N2c3cc(F)c(N4[C@@H]5CC[C@H]4CSC5)cc3OC[C@@H]12)c1ccncc1` [Compound 20, N-(((3S,3aS)-7-((1R,5S)-3-thia-8-azabicyclo[3.2.1]octan-8-yl)-8-fluoro-1-oxo-3a,4-dihydro-1H,3H-benzo[b]oxazolo[3,4-d][1,4]oxazin-3-yl)methyl)isonicotinamide]?
**A.** IC50 (Vero cells; Vero, 48 h): > 64 µg/mL; melting point: 149 to 150 °C

**Q.** For `O=C1O[C@@H](Cn2ccnn2)[C@@H]2COc3cc(N4[C@@H]5CC[C@H]4CSC5)c(F)cc3N12` [Compound 22, (3S,3aS)-3-((1H-1,2,3-Triazol-1-yl)methyl)-7-((1R,5S)-3-thia-8-azabicyclo[3.2.1]octan-8-yl)-8-fluoro-3a,4-dihydro-1H,3H-benzo[b]oxazolo[3,4-d][1,4]oxazin-1-one], which IC50 (Vero cells; Vero, 48 h) is on record?
**A.** > 64 µg/mL

**Q.** What about the melting point of the same compound?
**A.** 225 to 227 °C

**Q.** Which results are given for `CC(=O)NC[C@@H]1OC(=O)N2c3cc(F)c(N4CC5(COC5)C4)cc3OC[C@@H]12` [Compound 24, N-(((3S,3aS)-8-Fluoro-1-oxo-7-(2-oxa-6-azaspiro[3.3]heptan-6-yl)-3a,4-dihydro-1H,3H-benzo[b]oxazolo[3,4-d][1,4]oxazin-3-yl)methyl)acetamide]?
**A.** IC50 (Vero cells; [3]): > 64 µg/mL; melting point: 105 to 107 °C

**Q.** For `O=C(NC[C@@H]1OC(=O)N2c3cc(F)c(N4CC5(COC5)C4)cc3OC[C@@H]12)C1CC1` [Compound 25, N-(((3S,3aS)-8-Fluoro-1-oxo-7-(2-oxa-6-azaspiro[3.3]heptan-6-yl)-3a,4-dihydro-1H,3H-benzo[b]oxazolo[3,4-d][1,4]oxazin-3-yl)methyl)cyclopropanecarboxamide], which IC50 (Vero cells; [3]) is on record?
**A.** > 64 µg/mL

**Q.** And the melting point?
**A.** 181 to 183 °C

**Q.** Which IC50 (Vero cells; [3]) does the source give for `O=C(NC[C@@H]1OC(=O)N2c3cc(F)c(N4CC5(COC5)C4)cc3OC[C@@H]12)C1CCC1` [Compound 26, N-(((3S,3aS)-8-Fluoro-1-oxo-7-(2-oxa-6-azaspiro[3.3]heptan-6-yl)-3a,4-dihydro-1H,3H-benzo[b]oxazolo[3,4-d][1,4]oxazin-3-yl)methyl)cyclobutanecarboxamide] here?
**A.** > 64 µg/mL

**Q.** And the melting point?
**A.** 118 to 120 °C

**Q.** For `O=C1O[C@@H](Cn2ccnn2)[C@@H]2COc3cc(N4CC5(COC5)C4)c(F)cc3N12` [Compound 27, (3S,3aS)-3-((1H-1,2,3-Triazol-1-yl)methyl)-8-fluoro-7-(2-oxa-6-azaspiro[3.3]heptan-6-y 1)-3a,4-dihydro-1H,3H-benzo[b]oxazolo[3,4-d][1,4]oxazin-1-one], which IC50 (Vero cells; [3]) is on record?
**A.** > 64 µg/mL

**Q.** What about the melting point of the same compound?
**A.** 219 to 221 °C

**Q.** Which results are given for `CC(=O)NC[C@H]1OC(=O)N2c3cc(F)c(N4CCSCC4)cc3OC[C@H]12` [Compound 28, N-(((3R,3aR)-8-Fluoro-1-oxo-7-thiomorpholino-3a,4-dihydro-1H,3H-benzo[b]oxazolo[3,4-d][1,4]oxazin-3-yl)methyl)acetamide]?
**A.** MIC [1, 4]: 0.232 µg/mL (≈ 0.608 µM); IC50 (Vero cells; [3]): > 64 µg/mL; IC50 [2, 5]: >100 µg/mL

**Q.** What does the source list for `COC(=O)NC[C@H]1OC(=O)N2c3cc(F)c(N4CCSCC4)cc3OC[C@H]12` [Compound 30, Methyl (((3R,3aR)-8-fluoro-1-oxo-7-thiomorpholino-3a,4-dihydro-1H,3H-benzo[b]oxazolo[3,4-d][l, 4]oxazin-3-yl)methyl)carbamate]?
**A.** MIC [1, 4]: 0.208 µg/mL (≈ 0.523 µM); IC50 (Vero cells; [3]): > 64 µg/mL; melting point: 158 to 160 °C

**Q.** With `CC(=O)NC[C@@H]1OC(=O)N2c3cc(F)c(N4CCC(F)(F)CC4)cc3OC[C@@H]12` [Compound 32, N-(((3S,3aS)-7-(4,4-Difluoropiperidin-1-yl)-8-fluoro-1-oxo-3a,4-dihydro-1H,3H-benzo[b]oxazolo[3,4-d][1,4]oxazin-3-yl)methyl)acetamide] as the compound, how does the MIC [1, 4] read?
**A.** 0.908 µg/mL (≈ 2.27 µM)

**Q.** What about the IC50 (Vero cells; [3]) of the same compound?
**A.** > 64 µg/mL

**Q.** What about the melting point of the same compound?
**A.** 230 to 232 °C

**Q.** For `O=C(NC[C@@H]1OC(=O)N2c3cc(F)c(N4CCSCC4)cc3OC[C@@H]12)C(F)F` [Compound 33, 2,2-Difluoro-N-(((3S,3aS)-8-fluoro-1-oxo-7-thiomorpholino-3a,4-dihydro-1H,3H-benzo [b]oxazolo[3,4-d][1,4]oxazin-3-yl)methyl)acetamide], which MIC [1, 4] is on record?
**A.** 0.1 µg/mL (≈ 0.24 µM)

**Q.** What about the IC50 (Vero cells; [3]) of the same compound?
**A.** 61.6 µg/mL (≈ 148 µM)

**Q.** And the melting point?
**A.** 200 to 202 °C

**Q.** Which results are given for `O=C(NC[C@@H]1OC(=O)N2c3cc(F)c(N4CC[S+]([O-])CC4)cc3OC[C@@H]12)C(F)F` [Compound 34, 2,2-Difluoro-N-(((3S,3aS)-8-fluoro-7-(1-oxidothiomorpholino)-1-oxo-3a,4-dihydro-1H, 3H-benzo[b]oxazolo[3,4-d][1,4]oxazin-3-yl)methyl)acetamide]?
**A.** MIC [1, 4]: 0.492 µg/mL (≈ 1.14 µM); IC50 (Vero cells; [3]): > 64 µg/mL; melting point: 190 to 192 °C

**Q.** For `CC(=O)NC[C@@H]1OC(=O)N2c3cc(F)c(N4CCS(=O)(=O)CC4)cc3OC[C@@H]12` [Compound 35, N-(((3S,3aS)-7-(1,1-dioxidothiomorpholino)-8-fluoro-1-oxo-3a,4-dihydro-1H,3H-benzo [b]oxazolo[3,4-d][1,4]oxazin-3-yl)methyl)acetamide], which MIC [1, 4] is on record?
**A.** 0.48 µg/mL (≈ 1.16 µM)

**Q.** And the IC50 (Vero cells; [3])?
**A.** > 64 µg/mL

**Q.** And the melting point?
**A.** 226 to 228 °C

**Q.** Which MIC [1, 4] does the source give for `O=C1O[C@@H](CNC2COC2)[C@@H]2COc3cc(N4CCSCC4)c(F)cc3N12` [Compound 36, (3S,3aS)-8-Fluoro-3-((oxetan-3-ylamino)methyl)-7-thiomorpholino-3a,4-dihydro-1H,3H-benzo[b]oxazolo[3,4-d][1,4]oxazin-1-one] here?
**A.** 0.237 µg/mL (≈ 0.599 µM)

**Q.** What about the IC50 (Vero cells; [3]) of the same compound?
**A.** > 64 µg/mL

**Q.** And the melting point?
**A.** 162 to 164 °C

**Q.** Which MIC [1, 4] does the source give for `CC(=O)NC[C@@H]1OC(=O)N2c3ccc(N4CCOCC4)cc3OC[C@@H]12` [Compound VII, reference compound] here?
**A.** 1.55 µg/mL (≈ 4.45 µM)

**Q.** What about the IC50 [2, 5] of the same compound?
**A.** 35.82 µg/mL

**Q.** And the IC50 ([2]; read-out: IC50 value of mitochondrial protein synthesis inhibition)?
**A.** 35.8 µM

**Q.** Which MIC [1, 4] does the source give for `CC(=O)NC[C@H]1CN(c2ccc(N3CCOCC3)c(F)c2)C(=O)O1` [Linezolid, reference compound] here?
**A.** 0.294 µg/mL (≈ 0.871 µM)

**Q.** And the IC50 [2, 5]?
**A.** 8.71 µg/mL

**Q.** For `CC(=O)NC[C@H]1CN(c2ccc(N3CCSCC3)c(F)c2)C(=O)O1` [Sutezolid, reference compound], which MIC [1, 4] is on record?
**A.** 0.078 µg/mL (≈ 0.221 µM)

**Q.** And the IC50 [2, 5]?
**A.** 7.98 µg/mL
